From patent EP4667458A1 (Kanaph Therapeutics Inc., priority 2023, dated 2024)

Assays:
SOS1 = target: T1, SOS1 (Homo sapiens, UniProt Q07889); experiment: SOS-catalyzed nucleotide exchange assay (HTRF, SOS1-mediated GTP loading of KRAS G12D); assay type: biochemical; conditions: GST-KRAS G12D, HIS-SOS1cat, EDA-GTP-DY-647P1; compound 128 pM to 10 µM; read-out: SOS-catalyzed nucleotide exchange assay (IC50 range, Grade)
T1 construct: adding equal amounts of HIS-SOS1cat (160 nM; Cytoskeleton, US); His; purchased Cytoskeleton, US
T1 sequence (Q07889 564-1049 limits assumed): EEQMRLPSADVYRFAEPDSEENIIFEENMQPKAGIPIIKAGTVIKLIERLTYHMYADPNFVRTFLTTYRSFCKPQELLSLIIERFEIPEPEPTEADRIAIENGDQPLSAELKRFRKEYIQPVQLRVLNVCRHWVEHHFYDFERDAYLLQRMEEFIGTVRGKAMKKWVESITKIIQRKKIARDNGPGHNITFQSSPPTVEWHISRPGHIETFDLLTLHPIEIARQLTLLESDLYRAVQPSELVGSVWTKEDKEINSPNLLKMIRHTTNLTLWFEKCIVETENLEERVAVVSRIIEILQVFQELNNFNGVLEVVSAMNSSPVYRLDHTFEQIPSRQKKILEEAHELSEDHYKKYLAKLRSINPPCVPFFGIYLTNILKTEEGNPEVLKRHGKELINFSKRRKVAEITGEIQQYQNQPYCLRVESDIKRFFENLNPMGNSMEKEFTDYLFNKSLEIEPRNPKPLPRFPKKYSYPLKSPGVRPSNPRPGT
Procedure, shortened: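 SOS1cat (HIS-tagged) preincubated 10 min at room temperature with compound (128 pM-10 µM), then GST-KRAS G12D with anti-GST terbium added; GTP loading tracked as HTRF with a DY-647P1 GTP analogue after 30 min, buffer HEPES pH 7.4. GEF-free wells for normalization; IC50 derived.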

KRAS^G12C::SOS1 = target: T2, KRAS^G12C::SOS1 (Homo sapiens, UniProt Q07889); experiment: KRAS G12C::SOS1 protein-protein interaction (PPI) inhibition assay (HTRF binding kit)
T2 sequence (Q07889 1-1333): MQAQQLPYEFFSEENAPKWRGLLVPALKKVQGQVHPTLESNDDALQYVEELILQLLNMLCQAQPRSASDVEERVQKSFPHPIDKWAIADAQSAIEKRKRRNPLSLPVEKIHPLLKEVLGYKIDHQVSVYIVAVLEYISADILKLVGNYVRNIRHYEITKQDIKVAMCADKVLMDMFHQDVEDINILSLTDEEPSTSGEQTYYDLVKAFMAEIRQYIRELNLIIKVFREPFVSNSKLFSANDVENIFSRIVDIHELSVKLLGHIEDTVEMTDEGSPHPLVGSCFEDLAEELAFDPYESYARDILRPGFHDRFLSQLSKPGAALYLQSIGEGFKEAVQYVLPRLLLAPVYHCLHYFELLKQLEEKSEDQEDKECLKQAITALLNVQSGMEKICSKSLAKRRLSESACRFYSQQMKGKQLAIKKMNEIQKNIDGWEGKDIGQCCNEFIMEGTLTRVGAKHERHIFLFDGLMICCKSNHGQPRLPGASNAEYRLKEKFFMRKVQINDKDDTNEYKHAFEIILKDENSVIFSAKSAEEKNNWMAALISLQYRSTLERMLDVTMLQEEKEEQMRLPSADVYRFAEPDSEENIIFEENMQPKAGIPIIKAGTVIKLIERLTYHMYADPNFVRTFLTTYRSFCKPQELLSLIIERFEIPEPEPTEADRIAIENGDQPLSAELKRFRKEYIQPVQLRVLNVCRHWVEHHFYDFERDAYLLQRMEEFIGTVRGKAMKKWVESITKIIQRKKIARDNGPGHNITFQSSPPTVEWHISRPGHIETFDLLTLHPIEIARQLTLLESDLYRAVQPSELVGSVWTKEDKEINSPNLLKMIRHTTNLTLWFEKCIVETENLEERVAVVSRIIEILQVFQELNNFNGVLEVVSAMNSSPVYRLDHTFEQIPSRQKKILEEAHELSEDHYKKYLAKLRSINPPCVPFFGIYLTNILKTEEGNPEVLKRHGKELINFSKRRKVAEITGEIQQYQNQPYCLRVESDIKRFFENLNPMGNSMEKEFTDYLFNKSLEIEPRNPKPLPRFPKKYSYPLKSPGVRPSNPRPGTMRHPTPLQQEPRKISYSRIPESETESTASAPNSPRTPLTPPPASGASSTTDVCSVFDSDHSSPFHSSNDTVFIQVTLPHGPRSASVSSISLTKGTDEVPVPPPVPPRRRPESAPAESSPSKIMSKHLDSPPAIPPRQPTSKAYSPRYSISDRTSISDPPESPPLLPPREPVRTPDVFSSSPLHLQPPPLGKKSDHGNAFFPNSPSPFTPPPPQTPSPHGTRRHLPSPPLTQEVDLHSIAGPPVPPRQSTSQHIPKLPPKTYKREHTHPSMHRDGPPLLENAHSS

IC50 (SOS1) [nM] | IC50 (KRAS^G12C::SOS1) [nM] | Structure (SMILES)
< 1000 | < 1000 | CCn1nncc1-c1cccc(-n2cc(C(=O)N[C@H](C)c3cccc(C(F)(F)F)c3F)ccc2=O)c1 [Example B04, N-[(R)-1-[2-fluoro-3-(trifluoromethyl)phenyl]ethyl]-1-[m-(1-ethyl-1H-1,2,3-triazol-5-yl)phenyl]-6-oxo-1,6-dihydronicotinamide]
< 1000 | < 1000 | C[C@@H](NC(=O)c1ccc(=O)n(-c2ccc(F)c(-c3cnnn3C)c2)n1)c1cccc(C(F)(F)F)c1F [Example B06, N-[(R)-1-[2-fluoro-3-(trifluoromethyl)phenyl]ethyl]-1-[4-fluoro-3-(1-methyl-1H-1,2,3-triazol-5-yl)phenyl]-6-oxo-1,6-dihydro-3-pyridazinecarboxamide]
< 1000 | < 1000 | C[C@@H](NC(=O)c1ccc(=O)n(-c2cccc(-c3ccnn3C(F)F)c2)n1)c1cc(N)cc(C(F)(F)F)c1 [Example 149, N-[(1R)-1-[3-amino-5-(trifluoromethyl)phenyl]ethyl]-1-[3-[2-(difluoromethyl)pyrazol-3-yl]phenyl]-6-oxo-pyridazine-3-carboxamide]
1000 to 10000 | < 1000 | C[C@@H](NC(=O)c1ccc(=O)n(-c2cccc3[nH]ccc23)n1)c1cc(N)cc(C(F)(F)F)c1 [Example 160, N-[(1R)-1-[3-amino-5-(trifluoromethyl)phenyl]ethyl]-1-(1H-indol-4-yl)-6-oxo-pyridazine-3-carboxamide]
1000 to 10000 | 1000 to 10000 | COCc1ccccc1-n1nc(C(=O)N[C@H](C)c2cc(N)cc(C(F)(F)F)c2)ccc1=O [Example 157, N-[(1R)-1-[3-amino-5-(trifluoromethyl)phenyl]ethyl]-1-[2-(methoxymethyl)phenyl]-6-oxo-pyridazine-3-carboxamide]
< 1000 | < 1000 | COc1ccc(-n2nc(C(=O)N[C@H](C)c3cc(N)cc(C(F)(F)F)c3)ccc2=O)c(OC)c1 [Example 153, N-[(1R)-1-[3-amino-5-(trifluoromethyl)phenyl]ethyl]-1-(2,4-dimethoxyphenyl)-6-oxo-pyridazine-3-carboxamide]
< 1000 | < 1000 | C[C@@H](NC(=O)c1ccc(=O)n(-c2cncc(-c3cnnn3C)c2)n1)c1cccc(C(F)(F)CF)c1F [Example B09, (R)-N-(1-(2-fluoro-3-(1,1,2-trifluoroethyl)phenyl)ethyl)-1-(5-(1-methyl-1H-1,2,3-triazol-5-yl)pyridin-3-yl)-6-oxo-1,6-dihydropyridazine-3-carboxamide]
> 10000 | > 10000 | C[C@@H](NC(=O)c1ccc(=O)n(-c2cccnc2F)c1)c1cc(N)cc(C(F)(F)F)c1 [Example 148, N-[(1R)-1-[3-amino-5-(trifluoromethyl)phenyl]ethyl]-1-(2-fluoro-3-pyridyl)-6-oxo-pyridine-3-carboxamide]
1000 to 10000 | – | C[C@@H](NC(=O)c1ccc(=O)n(C2CCOCC2)n1)c1cccc(Cl)c1 [Example 17, N-[(1R)-1-(3-chlorophenyl)ethyl]-6-oxo-1-tetrahydropyran-4-yl-pyridazine-3-carboxamide]
1000 to 10000 | – | C[C@@H](NC(=O)c1ccc(=O)n(-c2ccccc2)n1)c1cccc(OC(F)(F)F)c1 [Example 10, 6-oxo-1-phenyl-N-[(1R)-1-[3-(trifluoromethoxy)phenyl]ethyl]pyridazine-3-carboxamide]
< 1000 | – | C[C@@H](NC(=O)c1ccc(=O)n(-c2cccc(N3CCN(C)C3=O)c2)c1)c1cc(N)cc(C(F)(F)F)c1 [Example 89, N-[(1R)-1-[3-amino-5-(trifluoromethyl)phenyl]ethyl]-1-[3-(3-methyl-2-oxo-imidazolidin-1-yl)phenyl]-6-oxo-pyridine-3-carboxamide]
1000 to 10000 | – | C[C@@H](NC(=O)c1ccc(=O)n(C23CC(C2)C3)n1)c1cc(N)cc(C(F)(F)F)c1 [Example 70, N-[(1R)-1-[3-amino-5-(trifluoromethyl)phenyl]ethyl]-1-{bicyclo[1.1.1]pentan-1-yl}-6-oxo-1,6-dihydropyridazine-3-carboxamide]

Further lines, the compound ahead of its results:

Structure (SMILES) | IC50 (SOS1) [nM] | IC50 (KRAS^G12C::SOS1) [nM]
C[C@@H](NC(=O)c1ccc(=O)n(-c2cccc(-c3ccnn3C(F)F)c2)n1)c1cccc(C(F)(F)CO)c1F [Example 150, N-[(1R)-1-[3-(1,1-difluoro-2-hydroxy-ethyl)-2-fluoro-phenyl]ethyl]-1-[3-[2-(difluoromethyl)pyrazol-3-yl]phenyl]-6-oxo-pyridazine-3-carboxamide] | < 1000 | < 1000
Cc1cc(C(=O)N[C@H](C)c2cc(N)cc(C(F)(F)F)c2F)nn(-c2cncc(-c3cnnn3C)c2)c1=O [Example B03, N-[(1R)-1-[5-amino-2-fluoro-3-(trifluoromethyl)phenyl]ethyl]-5-methyl-1-[5-(3-methyltriazol-4-yl)-3-pyridyl]-6-oxo-pyridazine-3-carboxamide] | < 1000 | < 1000
C[C@@H](NC(=O)c1ccc(=O)n(-c2ccccc2CO)n1)c1cc(N)cc(C(F)(F)F)c1 [Example 156, N-[(1R)-1-[3-amino-5-(trifluoromethyl)phenyl]ethyl]-1-[2-(hydroxymethyl)phenyl]-6-oxo-pyridazine-3-carboxamide] | 1000 to 10000 | 1000 to 10000
C[C@@H](NC(=O)c1ccc(=O)n(-c2ccccc2)n1)c1cc(N)cc(C(F)(F)F)c1 [Example 16, N-[(1R)-1-[3-amino-5-(trifluoromethyl)phenyl]ethyl]-6-oxo-1-phenyl-pyridazine-3-carboxamide] | < 1000 | –
C#Cc1cc(=O)n(-c2ccccc2)nc1C(=O)N[C@H](C)c1cc(N)cc(C(F)(F)F)c1 [Example 50, N-[(1R)-1-[3-amino-5-(trifluoromethyl)phenyl]ethyl]-4-ethynyl-6-oxo-1-phenyl-pyridazine-3-carboxamide] | 1000 to 10000 | –
CC(=O)Nc1ccccc1-n1nc(C(=O)N[C@H](C)c2cc(N)cc(C(F)(F)F)c2)ccc1=O [Example 52, (R)-1-(2-acetamidophenyl)-N-(1-(3-amino-5-(trifluoromethyl)phenyl)ethyl)-6-oxo-1,6-dihydropyridazine-3-carboxamide] | 1000 to 10000 | –
C[C@@H](NC(=O)c1ccc(=O)n(C2CCN(S(C)(=O)=O)CC2)n1)c1cccc(Cl)c1 [Example 19, (R)-N-(1-(3-chlorophenyl)ethyl)-1-(1-(methylsulfonyl)piperidin-4-yl)-6-oxo-1,6-dihydropyridazine-3-carboxamide] | 1000 to 10000 | –
COc1ccc(-n2nc(C(=O)N[C@H](C)c3cccc(C(F)(F)CO)c3F)ccc2=O)cc1 [Example 42, (R)-N-(1-(3-(1,1-difluoro-2-hydroxyethyl)-2-fluorophenyl)ethyl)-1-(4-methoxyphenyl)-6-oxo-1,6-dihydropyridazine-3-carboxamide] | < 1000 | –
C[C@@H](NC(=O)c1ccc(=O)n(-c2ccccc2)n1)c1ccc(Br)cc1 [Example 6, (R)-N-(1-(4-bromophenyl)ethyl)-6-oxo-1-phenyl-1,6-dihydropyridazine-3-carboxamide] | > 10000 | –
